Target: FAK (Homo sapiens (Human), UniProt Q05397)
Experiment: FAK Degradation Assay (Western blot, FAK/GAPDH)
Assay type: cell-based
Conditions: MDA-MB-231 cells, 24 h treatment, Western blot normalized to DMSO; for DC50: read-out: DC50 (half-maximal degradation concentration), FAK Degradation; for Dmax: read-out: Dmax (maximal degradation), FAK Degradation
Description: H2122 (4×10^5), MIA PaCa-2 (6×10s), or MDA-MB-231 cells (6×10^5) per well were seeded into a 6-well plate containing 2 mL of complete culture medium (RPMI-1640 for H2122 and MDA-MB-231, and DMEM/F12 for MIA PaCa-2, supplemented with 10% FBS and 1% penicillin/streptomycin). The cells were cultured overnight at 37° C. in the presence of 5% C02 before treated with a compound in a series of concentrations for 24 h. The cells were then washed with ice-cold Dulbecco's phosphate-buffered saline (DPBS). A radioimmuno-precipitation assay (RIPA) buffer was added to lyse the cells on ice for 20 min. The cells were then scrapped using cell scraper and collected in a 1.5 mL tube, which was centrifuged at 14,000 g and 4° C. for 15 min. The supernatant was collected and the total protein concentration of each sample was determined using a PIERCE™ BCA protein assay kit. The supernatant was diluted to the same protein concentration with the RIPA buffer after the BCA assay. Samples of the same protein amount were mixed with 4× a lithium dodecyl sulfate (LDS) sample buffer and boiled at 95° C. for 5 min. The denatured samples were used for electrophoresis.
For Western blot, the same volume containing ˜50 μg protein for each sample was loaded onto 4-12% Bis-Tris protein gel. The gel was run at 80 V for 0.5 h and at 120 V for 1 h. When the electrophoresis was completed, an IBLOT™ 2 gel transfer device was used to transfer FAK and GAPDH proteins at 20 V for 7 min. All the membranes were blocked in 5% nonfat dry milk in a TBST buffer at RT for 1 h and then incubated with primary antibodies (anti-FAK and anti-GAPDH) in a TBST buffer containing 5% BSA at 4° C. overnight. The membranes were washed with the TBST buffer and then incubated with secondary antibodies (goat anti-rabbit IgG H&L for FAK and goat anti-mouse IgG H&L for GAPDH) at room temperature for 1 h. Blots were visualized using an IMAGEQUANT™ LAS-4000. The chemiluminescent signals from ECL™ Western blotting reagents were captured. The band integrated intensity from each 16-bit blot image was used for quantitation. The FAK/GAPDH signal ratios of each sample were normalized using DMSO as a control and the normalized data for each compound were used to obtain its half-maximal degradation concentration (DC50) and maximal degradation (Dmax).

FAK, sequence (Q05397 whole entry): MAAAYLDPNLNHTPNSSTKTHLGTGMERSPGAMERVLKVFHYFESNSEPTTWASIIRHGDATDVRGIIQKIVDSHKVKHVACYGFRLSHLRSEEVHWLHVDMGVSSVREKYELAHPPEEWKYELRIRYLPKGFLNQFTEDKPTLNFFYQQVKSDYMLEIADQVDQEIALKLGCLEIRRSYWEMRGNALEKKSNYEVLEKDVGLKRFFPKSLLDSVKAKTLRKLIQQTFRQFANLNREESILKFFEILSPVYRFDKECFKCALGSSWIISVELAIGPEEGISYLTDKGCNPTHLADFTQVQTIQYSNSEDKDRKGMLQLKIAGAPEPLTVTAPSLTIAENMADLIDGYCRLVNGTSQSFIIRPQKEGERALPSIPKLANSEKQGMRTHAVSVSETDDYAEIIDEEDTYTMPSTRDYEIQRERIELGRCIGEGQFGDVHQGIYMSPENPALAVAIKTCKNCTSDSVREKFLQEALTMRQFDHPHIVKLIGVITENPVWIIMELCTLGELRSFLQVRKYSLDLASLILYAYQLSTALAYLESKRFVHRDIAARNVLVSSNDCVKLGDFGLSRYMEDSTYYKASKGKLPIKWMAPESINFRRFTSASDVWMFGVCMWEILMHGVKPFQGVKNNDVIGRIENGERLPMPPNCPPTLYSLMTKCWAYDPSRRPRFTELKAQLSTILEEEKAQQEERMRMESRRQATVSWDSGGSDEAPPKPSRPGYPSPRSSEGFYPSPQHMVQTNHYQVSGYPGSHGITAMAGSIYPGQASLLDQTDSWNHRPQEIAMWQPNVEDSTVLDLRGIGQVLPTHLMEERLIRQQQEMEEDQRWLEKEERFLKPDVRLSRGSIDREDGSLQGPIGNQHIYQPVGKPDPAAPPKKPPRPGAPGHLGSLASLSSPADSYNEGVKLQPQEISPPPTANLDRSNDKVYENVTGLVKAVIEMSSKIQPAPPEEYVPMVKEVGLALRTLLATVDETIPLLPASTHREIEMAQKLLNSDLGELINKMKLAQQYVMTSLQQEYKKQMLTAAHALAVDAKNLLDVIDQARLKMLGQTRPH

Structure (SMILES)	DC50 [nM]	Dmax [%]
CN(c1nccnc1CNc1nc(Nc2ccc(OCCCCCCOc3ccc4c(c3)C(=O)N(C3CCC(=O)NC3=O)C4=O)cc2)ncc1C(F)(F)F)S(C)(=O)=O (stereo not shown) [Compound A8, N-(3-(((2-((4-((6-((2-(2,6-Dioxopiperidin-3-yl)-1,3-dioxoisoindolin-5-yl)oxy)-hexyl)oxy)phenyl)amino)-5-(trifluoromethyl)pyrimidin-4-yl)amino)methyl)pyrazin-2-yl)-N-methylmethanesulfonamide]	4.1	100
CN(c1nccnc1CNc1nc(Nc2ccc(OCCCCCCCOc3ccc4c(c3)C(=O)N(C3CCC(=O)NC3=O)C4=O)cc2)ncc1C(F)(F)F)S(C)(=O)=O (stereo not shown) [Compound A9, N-(3-(((2-((4-((7-((2-(2,6-Dioxopiperidin-3-yl)-1,3-dioxoisoindolin-5-yl)oxy)-heptyl)oxy)phenyl)amino)-5-(trifluoromethyl)pyrimidin-4-yl)amino)methyl)pyrazin-2-yl)-N-methylmethanesulfonamide]	14	100
CN(c1nccnc1CNc1nc(Nc2cccc(C(=O)NC3CCN(CC4CCN(c5ccc6c(c5)C(=O)N(C5CCC(=O)NC5=O)C6=O)CC4)CC3)c2)ncc1C(F)(F)F)S(C)(=O)=O (stereo not shown) [Compound A10, N-(1-((1-(2-(2,6-Dioxopiperidin-3-yl)-1,3-dioxoisoindolin-5-yl)piperidin-4-yl)-methyl)piperidin-4-yl)-3-((4-(((3-(N-methylmethylsulfonamido)pyrazin-2-yl)methyl)amino)-5-(trifluoromethyl)pyrimidin-2-yl)amino)benzamide]	2.1	98
CN(c1nccnc1CNc1nc(Nc2cccc(C(=O)N3CCC(N4CCN(c5ccc6c(c5)C(=O)N(C5CCC(=O)NC5=O)C6=O)CC4)CC3)c2)ncc1C(F)(F)F)S(C)(=O)=O (stereo not shown) [Compound A11, N-(3-(((2-((3-(4-(4-(2-(2,6-Dioxopiperidin-3-yl)-1,3-dioxoisoindolin-5-yl)-piperazin-1-yl)piperidine-1-carbonyl)phenyl)amino)-5-(trifluoromethyl)pyrimidin-4-yl)amino)-methyl)pyrazin-2-yl)-N-methylmethanesulfonamide]	0.83	94
CN(c1nccnc1CNc1nc(Nc2cccc(C(=O)NC3CCN(c4ccc5c(c4)C(=O)N(C4CCC(=O)NC4=O)C5=O)CC3)c2)ncc1C(F)(F)F)S(C)(=O)=O (stereo not shown) [Compound A12, N-(1-(2-(2,6-dioxopiperidin-3-yl)-1,3-dioxoisoindolin-5-yl)piperidin-4-yl)-3-((4-(((3-(N-methylmethylsulfonamido)pyrazin-2-yl)methyl)amino)-5-(trifluoromethyl)pyrimidin-2-yl)amino)benzamide]	5.6	98
CN(c1nccnc1CNc1nc(Nc2cccc(C(=O)N3CC(OC4CCN(c5ccc6c(c5)C(=O)N(C5CCC(=O)NC5=O)C6=O)CC4)C3)c2)ncc1C(F)(F)F)S(C)(=O)=O (stereo not shown) [Compound A13, N-(3-(((2-((3-(3-((1-(2-(2,6-dioxopiperidin-3-yl)-1,3-dioxoisoindolin-5-yl)-piperidin-4-yl)oxy)azetidine-1-carbonyl)phenyl)amino)-5-(trifluoromethyl)pyrimidin-4-yl)-amino)methyl)pyrazin-2-yl)-N-methylmethanesulfonamide]	1.4	94
CN(c1ccccc1CNc1cc(Nc2ccc(CNC3CCN(c4ccc5c(c4)C(=O)N(C4CCC(=O)NC4=O)C5=O)CC3)cc2)ncc1C(F)(F)F)S(C)(=O)=O (stereo not shown) [Compound A14, N-(2-(((2-((4-(((1-(2-(2,6-dioxopiperidin-3-yl)-1,3-dioxoisoindolin-5-yl)piperidin-4-yl)amino)methyl)phenyl)amino)-5-(trifluoromethyl)pyridin-4-yl)amino)methyl)phenyl)-N-methylmethanesulfonamide]	10	93
CN(c1ccccc1CNc1cc(Nc2ccc(C(=O)NC3CCN(c4ccc5c(c4)C(=O)N(C4CCC(=O)NC4=O)C5=O)CC3)cc2)ncc1C(F)(F)F)S(C)(=O)=O (stereo not shown) [Compound A15, N-(1-(2-(2,6-dioxopiperidin-3-yl)-1,3-dioxoisoindolin-5-yl)piperidin-4-yl)-4-((4-((2-(N-methylmethylsulfonamido)benzyl)amino)-5-(trifluoromethyl)pyridin-2-yl)amino)-benzamide]	2.6	93
CN(c1cccc(CNc2cc(Nc3ccc(CNC4CCN(c5ccc6c(c5)C(=O)N(C5CCC(=O)NC5=O)C6=O)CC4)cc3)ncc2C(F)(F)F)c1)S(C)(=O)=O (stereo not shown) [Compound A16, N-(3-(((2-((4-(((1-(2-(2,6-Dioxopiperidin-3-yl)-1,3-dioxoisoindolin-5-yl)-piperidin-4-yl)amino)methyl)phenyl)amino)-5-(trifluoromethyl)pyridin-4-yl)amino)methyl)-phenyl)-N-methylmethanesulfonamide]	2.7	93
CNC(=O)c1ccccc1Nc1cc(Nc2ccc3c(c2)CC(=O)N3CC2CCN(c3ccc4c(c3)C(=O)N(C3CCC(=O)NC3=O)C4=O)CC2)ncc1C(F)(F)F (stereo not shown) [Compound A17, 2-((2-((1-((1-(2-(2,6-Dioxopiperidin-3-yl)-1,3-dioxoisoindolin-5-yl)piperidin-4-yl)methyl)-2-oxoindolin-5-yl)amino)-5-(trifluoromethyl)pyridin-4-yl)amino)-N-methyl-benzamide]	1.7	88
CN(c1ccccc1CNc1cc(Nc2ccc(CN3CC(Oc4ccc5c(c4)C(=O)N(C4CCC(=O)NC4=O)C5=O)C3)cc2)ncc1C(F)(F)F)S(C)(=O)=O (stereo not shown) [Compound A18, N-(2-(((2-((4-((3-((2-(2,6-Dioxopiperidin-3-yl)-1,3-dioxoisoindolin-5-yl)oxy)-azetidin-1-yl)methyl)phenyl)amino)-5-(trifluoromethyl)pyridin-4-yl)amino)methyl)phenyl)-N-methylmethanesulfonamide]	21	84
CN(c1ccccc1CNc1cc(Nc2ccc(CNC3CN(c4ccc5c(c4)C(=O)N(C4CCC(=O)NC4=O)C5=O)C3)cc2)ncc1C(F)(F)F)S(C)(=O)=O (stereo not shown) [Compound A19, N-(2-(((2-((4-(((1-(2-(2,6-Dioxopiperidin-3-yl)-1,3-dioxoisoindolin-5-yl)azetidin-3-yl)amino)methyl)phenyl)amino)-5-(trifluoromethyl)pyridin-4-yl)amino)methyl)phenyl)-N-methylmethanesulfonamide]	2.8	96
CN(c1ccccc1CNc1cc(Nc2ccc(C(=O)NC3CN(c4ccc5c(c4)C(=O)N(C4CCC(=O)NC4=O)C5=O)C3)cc2)ncc1C(F)(F)F)S(C)(=O)=O (stereo not shown) [Compound A20, N-(1-(2-(2,6-Dioxopiperidin-3-yl)-1,3-dioxoisoindolin-5-yl)azetidin-3-yl)-4-((4-((2-(N-methylmethylsulfonamido)benzyl)amino)-5-(trifluoromethyl)pyridin-2-yl)amino)-benzamide]	4.6	79
CNC(=O)c1ccccc1Nc1cc(Nc2ccc(C(=O)NC3CCN(c4ccc5c(c4)C(=O)N(C4CCC(=O)NC4=O)C5=O)CC3)cc2)ncc1C(F)(F)F (stereo not shown) [Compound A21, 2-((2-((4-((1-(2-(2,6-Dioxopiperidin-3-yl)-1,3-dioxoisoindolin-5-yl)piperidin-4-yl)carbamoyl)phenyl)amino)-5-(trifluoromethyl)pyridin-4-yl)amino)-N-methylbenzamide]	1.3	93

From US20250214967A1, “FAK DEGRADERS, PHARMACEUTICAL COMPOSITIONS, AND THERAPEUTIC APPLICATIONS” (Berrybio (Shanghai) Limited, priority 2022, published 2025)
